Reference: patent US20120129939A1, “POLYAMINE INHIBITORS FOR THE TREATMENT AND PREVENTION OF PARKINSON'S DISEASE” (priority 2009, published 2012)
Entries after “also recorded” stand apart in the source; their conditions may differ.

Experiments:
[1] = target: SAT1 (Homo sapiens, UniProt P21673); conditions: literature; cited from earlier work
[2] = system: transgenic mice (Line 61) expressing wildtype human α-synuclein; experiment: α-Synuclein transgenic mice, intraventricular infusion, immunohistochemical analysis of α-synuclein accumulation and neurodegeneration; format: in vivo
Source text: α-Synuclein transgenic mice and infusion: For this study, heterozygous transgenic (tg) mice (Line 61) expressing wildtype human α-synuclein (hα-syn) under the regulatory control of the mThy1 promoter were used (Rockenstein, E. et al. 2002). These animals were selected because they display abnormal accumulation of detergent-insoluble hα-syn and develop hα-syn-immunoreactive inclusion like structures in the basal ganglia, cortex, and limbic system (Rockentein, E. et al. 2002). Furthermore, these animals also display neurodegenerative and motor deficits that mimic certain aspects of PD and Dementia with Lewy bodies (Fleming, S. et al. 2004). Infusions were performed as previously described (Veinbergs, I. et al. 2001). In order to evaluate the effects of the polyamine pathway, hα-syn tg mice (10-11 months old) received intraventricular infusions with a cannula implanted into the skull and connected to osmotic minipumps of either vehicle, Beneril, or DENSPM. A total of 15 hu-syn tg mice (n=5 per group) were used for these experiments. Mice were treated for six weeks; the compounds were dissolved in 0.9% NaCl at a concentration of 62 μM for DENSPM and 30 μM for Berenil at a pH of 7.2. Then, 200 μL of these solutions were filled into the osmotic minipump (Alzet) ensuring constant delivery ([…]). The minipump was implanted subcutaneously on the back under light anesthesia. An additional group of control non tg (n=5) mice were implanted with minipumps filled with vehicle only. All procedures were completed under the specifications set forth by the Institutional Animal Care and Use Committee.
Brains were removed and divided sagittally. One hemibrain was postfixed in phosphate-buffered 4% paraformaldehyde, pH 7.4, at 4° C. for 48 h and sectioned at 40 μm with a Vibratome 2000 (Leica) and placed in cryosolution, whereas the other hemibrain was snap frozen and stored at −70° C. for further analysis. Sections were first washed 3×5 minutes each in PBS. They were then pretreated with 1% Triton-X, 3% hydrogen peroxide in PBS for 15 minutes, washed again 3×5 min in PBS and blocked in 10% serum matching the animal the secondary antibody was raised in for 1 hour and then washed in PBS. Sections were then placed in primary antibody: mouse anti-TH, rabbit anti-(h) α-syn, mouse anti-MAP2 (Chemicon, (1:500)) overnight in 4° C. Sections were washed 3×5 min in PBS and then placed in biotynilated secondary antibody (1:100) (Vector Laboratories) for 2 hours. After washing again 3 times in PBS, sections were placed in 20% […] (DAB) (Vector Laboratories) for 20 seconds. The reaction with DAB was halted by immersing the sections in double distilled water. Sections were then mounted, dried and coverslipped with Entillin (Fisher Scientific). Sections for fluorescent immunohistochemistry were treated with mouse monoclonal anti-microtuble-associated protein 2 (MAP2, 1:50, Roche Molecular Biochemicals) primary antibody. This antibody was then detected with the fluorescein isothiocyanate (FITC)-conjugated anti-mouse secondary antibody (Vector Laboratories). Coverslips were air-dried overnight, mounted on slides with anti-fading media (Vectashield, Vector Laboratories), and imaged with the LSCM (MRC 1024, Bio-Rad). The immunolabeled blind-coded sections were imaged by LSCM (MRC1024, Bio-Rad) and analyzed with the Image 1.43 program (NIH), as previously described (Fleming, S. et al. 2004).

[3] = system: Murine L1210 leukemia cells; experiment: Polyamine determinations (HPLC) in cultured cells treated with DFMO or DFMO analogs; format: cell-based; set-up: PUT (amount): unit not given beside the values; SPD (amount) / SPM (amount) / [PUT] (concentration) / [SPD] (concentration) / [SPM] (concentration) / 48 hr avg put / 48 hr avg spd: unit not given here; conditions: for 24 hr avg put / 24 hr avg spd / 24 hr avg spm / 48 hr avg put / 48 hr avg spd / 48 hr avg spm: average of 10, 50, 100 uM treatments; for 24 hr avg put / 24 hr avg spd / 24 hr avg spm: 24 hour treatment
Protocol: Cell Growth. […] After 24 or 48 h, cells were removed from tubes for counting and viability determinations. Cell number was determined by electronic particle counting (Model 2F Coulter Counter; Coulter Electron-ics, Hialeah, Fla.) and confirmed periodically with hemocytometer measurements. […] The percentage of control growth was determined as follows. Cell samples were washed twice in cold PBS, and an aliquot of […] was removed for polyamine determination. The cells were pelleted, and the PBS supernatant was carefully removed with a cotton swab. […] The supernatant was frozen at -20° C. until analysis by HPLC. […] The column temperature was maintained at 65° C. with water from a circulating bath. The column was eluted at a flow rate of 16 ml/h with an initial column pressure of 500 psi which decreased with increasing ionic strength of the elution buffer. […] The column was reequilibrated for 10 min with Buffer 1 prior to loading the next sample. The column eluate was derivatized with 0.05% o-phthalaldehyde (Durrum Chemical Corp.) in 0.4M borate buffer (pH 10.4) containing […] and 0.09% Brij 35. The o-phthalaldehyde reagent flow rate was 8 ml/h. The derivatized eluate was analyzed for polyamine content by passing it through the flow cell of a […] (Fluoro-Monitor; American Instrument Co., Silver Spring, Md.) with a fixed excitation wavelength of 360 nm and emission wavelength of […]. Data were analyzed using a Hewlett Packard Model […] automation system.

[4] = infusion via osmotic minipumps six weeks, compared to syntgPBS
[5] = 10 uM treatment, 24 hr treatment
[6] = 10 uM treatment, 48 hour treatment
[7] = 50 uM treatment, 24 hr treatment
[8] = 50 uM treatment, 48 hour treatment
[9] = 100 uM treatment, 24 hr treatment
[10] = 100 uM treatment, 48 hour treatment

SAT1, sequence (P21673 whole entry, the tested form may be a part): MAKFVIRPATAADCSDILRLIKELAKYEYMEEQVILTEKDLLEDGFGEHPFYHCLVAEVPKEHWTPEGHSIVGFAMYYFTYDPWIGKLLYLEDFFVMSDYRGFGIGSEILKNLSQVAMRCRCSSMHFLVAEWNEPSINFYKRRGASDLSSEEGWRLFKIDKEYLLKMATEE

## CCNCCCNCCCNCCCNCC [DENSPM, N1, N11-diethylnorspermine]
[1]
  SAT1 activity: increases
[2]; infusion via osmotic minipumps six weeks
  overall α-synuclein pathology / PD phenotype: partially rescued; also recorded: partially improved
[2]; infusion via osmotic minipumps six weeks, DENSPM 62 μM, Berenil 30 μM, compared to transgenic mice treated with PBS
  neuronal accumulation of α-synuclein in the basal ganglia (mean α-synuclein cell pixel intensity, caudo-putamen): decreased
[2]; [4]
  dendritic complexity in the basal ganglia as detected by MAP2 (% of neuropil covered by MAP2 immunoreactive dendrites): ameliorated; also recorded: rescued
  tyrosine hydroxylase (TH) fibers (TH corrected optical density in the caudo-putamen): partially rescued; also recorded: increased
[2]; infusion via osmotic pumps six weeks, compared to transgenic mice treated with PBS
  mean α-synuclein cell pixel intensity in the substantia nigra: trending decrease

## CCOC(=O)C(CCCNC(=O)OC)(NC(=O)OC)C(F)F (stereo not drawn) [DFMO Analog 2]
[3]; [5]
  PUT (amount): 56963
  SPD (amount): 651020
  SPM (amount): 481606
  [PUT] (concentration): 0.02773
  [SPD] (concentration): 0.799
  [SPM] (concentration): 1.556
[3]; [6]
  PUT (amount): 124533
  SPD (amount): 3898235
  SPM (amount): 4032041
  [PUT] (concentration): 0.06062
  [SPD] (concentration): 4.784
  [SPM] (concentration): 13.03
[3]; [7]
  PUT (amount): 379546
  SPD (amount): 3615812
  SPM (amount): 2470785
  [PUT] (concentration): 0.1847
  [SPD] (concentration): 4.438
  [SPM] (concentration): 7.985
[3]; [8]
  PUT (amount): 34544
  SPD (amount): 848798
  SPM (amount): 693740
  [PUT] (concentration): 0.01681
  [SPD] (concentration): 1.042
  [SPM] (concentration): 2.242
[3]; [9]
  PUT (amount): 27933
  SPD (amount): 323941
  SPM (amount): 212917
  [PUT] (concentration): 0.0136
  [SPD] (concentration): 0.3976
  [SPM] (concentration): 0.6881
[3]; [10]
  PUT (amount): 7198
  SPD (amount): 231781
  SPM (amount): 236426
  [PUT] (concentration): 0.003504
  [SPD] (concentration): 0.2845
  [SPM] (concentration): 0.764
[3]
  24 hr avg put: 0.07535
  24 hr avg spd: 1.878
  24 hr avg spm: 3.41
[3]; 48 hour treatment
  48 hr avg put: 0.02698
  48 hr avg spd: 2.037
  48 hr avg spm: 5.345

## CCOC(=O)C(N)(CCCN)C(F)F (stereo not drawn) [DFMO Analog 1]
[3]; [5]
  PUT (amount): 14507
  SPD (amount): 1202403
  SPM (amount): 149654
  [PUT] (concentration): 0.007061
  [SPD] (concentration): 0.2484
  [SPM] (concentration): 0.4836
[3]; [6]
  PUT (amount): 43116
  SPD (amount): 1887299
  SPM (amount): 2659801
  [PUT] (concentration): 0.02099
  [SPD] (concentration): 2.316
  [SPM] (concentration): 8.595
[3]; [7]
  SPD (amount): 163914
  SPM (amount): 168544
  [PUT] (concentration): 0
  [SPD] (concentration): 0.2012
  [SPM] (concentration): 0.5447
[3]; [8]
  PUT (amount): 23355
  SPD (amount): 1774662
  SPM (amount): 4106905
  [PUT] (concentration): 0.01137
  [SPD] (concentration): 2.178
  [SPM] (concentration): 13.27
[3]; [9]
  SPD (amount): 377626
  SPM (amount): 500166
  [SPD] (concentration): 0.4635
  [SPM] (concentration): 1.616
[3]; [10]
  SPD (amount): 332304
  SPM (amount): 1568383
  [PUT] (concentration): 0
  [SPD] (concentration): 0.4078
  [SPM] (concentration): 5.068
[3]
  24 hr avg put: 0.002354
  24 hr avg spd: 0.3043
  24 hr avg spm: 0.8815
[3]; 48 hour treatment
  48 hr avg put: 0.01078
  48 hr avg spd: 1.634
  48 hr avg spm: 8.978

## NCCC[C@](N)(C(=O)O)C(F)F [DFMO, α-difluoromethylornithine, reference compound]
[3]; [5]
  PUT (amount): 63429
  SPD (amount): 2369255
  SPM (amount): 2363841
  [PUT] (concentration): 0.03087
  [SPD] (concentration): 2.908
  [SPM] (concentration): 7.639
[3]; [6]
  SPD (amount): 254356
  SPM (amount): 373610
  [PUT] (concentration): 0
  [SPD] (concentration): 0.3122
  [SPM] (concentration): 1.207
[3]; [7]
  SPD (amount): 542711
  SPM (amount): 1315606
  [PUT] (concentration): 0
  [SPD] (concentration): 0.6661
  [SPM] (concentration): 4.251
[3]; [8]
  SPD (amount): 44007
  SPM (amount): 482723
  [PUT] (concentration): 0
  [SPD] (concentration): 0.05401
  [SPM] (concentration): 1.56
[3]; [9]
  SPD (amount): 42842
  SPM (amount): 98016
  [PUT] (concentration): 0
  [SPD] (concentration): 0.05258
  [SPM] (concentration): 0.3167
[3]; [10]
  SPD (amount): 220260
  SPM (amount): 7071485
  [PUT] (concentration): 0
  [SPD] (concentration): 0.2703
  [SPM] (concentration): 22.85
[3]
  24 hr avg put: 0.01029
  24 hr avg spd: 1.209
  24 hr avg spm: 4.069
[3]; 48 hour treatment
  48 hr avg put: 0
  48 hr avg spd: 0.2122
  48 hr avg spm: 8.54
